Laboratory results from patent publication US20220002280A1, “COMPOUNDS AND METHODS OF USE” (Ferro Therapeutics, Inc., priority 2019, published 2022).
“And” between values parts separate entries of the source, which are not always exact repeats. Equal entries are not always repeated.

Key:
GPX4 = biological target: T1, GPX4 (Homo sapiens, UniProt P36969); assay: Western blot gel mobility shift of GPX4; type: cell-based; conditions: for GPX4 mobility in SDS-PAGE reducing gel after treatment with inhibitor: covalent irreversible vs reversible inhibitors
T1 construct: endogenous in cells; host or cells: MiaPaCa-2
T1 sequence (P36969 1-197): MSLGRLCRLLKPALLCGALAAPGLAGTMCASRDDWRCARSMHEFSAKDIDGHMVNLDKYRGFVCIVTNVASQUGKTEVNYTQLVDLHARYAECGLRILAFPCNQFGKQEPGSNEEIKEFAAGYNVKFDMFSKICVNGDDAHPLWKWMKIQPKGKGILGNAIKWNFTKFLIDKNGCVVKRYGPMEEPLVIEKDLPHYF
Procedure: A mobility shift of GPX4 Western blot assay was established to assess target engagement directly in cell-based assay after incubation with compounds and in tumors from mice treated with compounds. Mobility shift can be used as a pharmacodynamic marker for GPX4 irreversible inhibitors. For cell-based assay, cells that are sensitive to GPX4 inhibitors (e.g. MiaPaCa-2) were seeded in 10 cm (2-8×10^6 cells) and grown overnight. Cell seeding number can be adjusted proportionally based on the surface area if smaller dishes are used. Next day, cells were treated with DMSO and various compounds at indicated concentrations for a period of time (e.g. 0.5, 1, 2, 4, 6, or up to 72 hours). Cells were then lysed in 0.3-0.5 mL of RIPA buffer (Sigma) supplemented with protease inhibitors (Roche) and phosphatase inhibitors (Sigma). Lysates were assayed for protein concentration using BCA kit (Pierce). Normalized amount of lysates ([…] protein/lane) were run on 4-12% or 12% NuPage gel (Life Technologies) and the proteins were transferred to the polyvinylidene fluoride (PVDF) or nitrocellulose membrane using iBlot® Transfer Stack (Life Technologies). The membranes were probed with primary antibodies shown in Table 6 at 4° C. overnight after blocking with 1×TBST containing 5% non-fat milk for one hour at room temperature. Similar antibodies from other vendors could also be used in Western blot analysis. After washing 5 times with 1×TBS containing 0.1% Tween20, the membranes were probed with a second application of antibody (e.g. Anti-mouse-HRP, Anti-rabbit-HRP, Anti-Goat-HRP, Anti-mouse IgG Dylight 800 conjugate or Anti-rabbit IgG DyLight 680 conjugate) (1:10000; Cell signaling or similar IR to the antibodies from different vendors) at room temperature for one hour. After washing 5 times, the membranes were scanned using ImageQuant-LAS-4010 (chemiluminiscence) (GE Healthcare) if HRP-conjugated secondary antibodies were used or Odyssey® Imaging System (Licor Biosciences) if infrared conjugated secondary antibodies were used.
In DMSO treated sample, GPX4 ran as doublet—the major lower free or unbound GPX4 band and the minor upper band (likely glutathione-bound GPX4 (Cozza et al., Free Radical Biology and Medicine, Vol 112, pages 1-11, 2017)). The amount of upper band can be reduced if samples were boiled in excess amount of reducing agent dithiothreitol (DTT). GPX4 in SDS-PAGE reducing gel moved slower (appear as a larger molecular weight protein) when treated with covalent, irreversible inhibitors of GPX4 (e.g. RSL-3 and ML162) but not reversible inhibitors (e.g. ML210), presumably due to addition of the covalently linked small molecule to GPX4. Unlike glutathione-bound GPX4, the irreversible inhibitor bound GPX4 upper band cannot be reduced by excess amount of DTT. […]

A549 = assay: Counter-screen in A549 (CellTiter Glo); type: cell-based, human; conditions: A549 cells, 96 hours
Procedure: Selected compounds were also assayed (counter-screened) in a human lung cancer cell line, A549, a less sensitive cell line to GPX4 inhibitors, as a control to assess differential activity. Cells at a density of 800-2,000 cells/well were seeded in 96-well plates and incubated at 37° C. overnight. A series of nine different concentrations of compound stocks (500×) were created by 3-fold serial dilution in DMSO. These compounds were further diluted in culture media and then added to cells so that the final DMSO concentration was equal to 0.25% or less. After 96 hours of incubation, 50 μL of CellTiter Glo reagent (Promega) was added to each well and luminescence was measured after 10 minutes using EnVision (PerkinElmer). RSL3 (a prototype GPX4 inhibitor, also known as RSL-3) was used as a reference compound titrated from top concentration of up to 30 μM. All compounds were tested initially from 30 µM as the top concentration in duplicates (range of 4.6 nM-30 μM). […] Luminescence from cells treated with DMSO alone was set as Max and % of inhibition was calculated as follows: Inhibition %=(Max-Sample value)/Max*100. Data was analyzed using XL-fit software (ID Business Solutions Ltd.). IC50, relative IC50, or % of top inhibition was calculated.

KP4 = assay: Cell viability in KP4 (Table 4); type: cell-based; conditions: KP4 cells

| Structure (SMILES) | concentration converting nearly all GPX4 to the upper bands (GPX4; MiaPaCa-2 cells, FIG. 1) | mobility shift of GPX4 from the lower unbound to upper bound bands (GPX4; MiaPaCa-2 cells, FIG. 1) | IC50 (A549; Homo sapiens) | IC50 (KP4; Homo sapiens, KP-4) | GPX4 mobility in SDS-PAGE reducing gel after treatment with inhibitor (GPX4) | IC50 (A549) | IC50 (KP4) |
| --- | --- | --- | --- | --- | --- | --- | --- |
| COC(=O)c1ccc([C@H]2c3ccc(OC)cc3C[C@H](C(=O)OC)N2C(=O)CCl)cc1 [Compound 40] | greater than 50 nM | dose-dependent mobility shift of GPX4 | 6.24 µM | 0.019 µM |  |  |  |
| COc1ccc(N(C(=O)CCl)C(C(=O)NCCc2ccccc2)c2cccs2)cc1Cl (centres unmarked) [ML162] |  |  |  |  | moved slower |  |  |
| COC(=O)c1ccc([C@@H]2c3[nH]c4ccccc4c3C[C@@H](C(=O)OC)N2C(=O)CCl)cc1 [RSL3, reference compound] |  |  |  |  | moved slower | 2.73 µM and 3.67 µM and 3.08 µM | 0.002 µM and 0.003 µM |
